The nature of one data set: Acute Toxicity Test. Conditions: mouse, in vivo; male mice, oral administration. Here is the method:
The test compounds were administered orally to the mice and LD50 (mg/kg) of the compounds was determined.

In another data set the test system is bastard dog. The experiment in a line: Increasing effect of cerebral blood flow. It counts as in vivo. Conditions: dosage 100 μg/kg, profunda femoris vein. As for the experimental part:
Thus, a bastard dog (male, 12-20 kg of body weight) was fixed in a prone (position) and was anesthetized with 20 mg/kg of pentobarbital sodium and made forced breathing to kept the frequency of respiration at 20 times/minutes. Then, the skull was bared and the surface bone was removed to expose the venous sinus by using grinder and the venous blood was took out from the venas which was cannulizated. The amount of venous blood flow was measured by using an electromagnetic blood flow meter and next measured by using drop-counter by measuring the number of drops of blood per 10 seconds.
The increasing effect of cerebral blood flow was calculated by comparing the number of blood drops in 30 seconds at the peak of increasement shown before and after the administration of compound to be tested. The each of compounds to be tested was dissolved in dimethylformamide and diluted with physiological saline solution and administered through a cannule being inserted into the profunda femoris vein.

The target of data set [1] is T1, cyclic AMP phosphodiesterase (Oryctolagus cuniculus, UniProt G1ST54).
T1 construct: the supernatant was collected to use it as a crude enzyme solution; from tissue; host or cells: rabbit platelets (from platelet-rich plasma)
T1 sequence (G1ST54 1-1128): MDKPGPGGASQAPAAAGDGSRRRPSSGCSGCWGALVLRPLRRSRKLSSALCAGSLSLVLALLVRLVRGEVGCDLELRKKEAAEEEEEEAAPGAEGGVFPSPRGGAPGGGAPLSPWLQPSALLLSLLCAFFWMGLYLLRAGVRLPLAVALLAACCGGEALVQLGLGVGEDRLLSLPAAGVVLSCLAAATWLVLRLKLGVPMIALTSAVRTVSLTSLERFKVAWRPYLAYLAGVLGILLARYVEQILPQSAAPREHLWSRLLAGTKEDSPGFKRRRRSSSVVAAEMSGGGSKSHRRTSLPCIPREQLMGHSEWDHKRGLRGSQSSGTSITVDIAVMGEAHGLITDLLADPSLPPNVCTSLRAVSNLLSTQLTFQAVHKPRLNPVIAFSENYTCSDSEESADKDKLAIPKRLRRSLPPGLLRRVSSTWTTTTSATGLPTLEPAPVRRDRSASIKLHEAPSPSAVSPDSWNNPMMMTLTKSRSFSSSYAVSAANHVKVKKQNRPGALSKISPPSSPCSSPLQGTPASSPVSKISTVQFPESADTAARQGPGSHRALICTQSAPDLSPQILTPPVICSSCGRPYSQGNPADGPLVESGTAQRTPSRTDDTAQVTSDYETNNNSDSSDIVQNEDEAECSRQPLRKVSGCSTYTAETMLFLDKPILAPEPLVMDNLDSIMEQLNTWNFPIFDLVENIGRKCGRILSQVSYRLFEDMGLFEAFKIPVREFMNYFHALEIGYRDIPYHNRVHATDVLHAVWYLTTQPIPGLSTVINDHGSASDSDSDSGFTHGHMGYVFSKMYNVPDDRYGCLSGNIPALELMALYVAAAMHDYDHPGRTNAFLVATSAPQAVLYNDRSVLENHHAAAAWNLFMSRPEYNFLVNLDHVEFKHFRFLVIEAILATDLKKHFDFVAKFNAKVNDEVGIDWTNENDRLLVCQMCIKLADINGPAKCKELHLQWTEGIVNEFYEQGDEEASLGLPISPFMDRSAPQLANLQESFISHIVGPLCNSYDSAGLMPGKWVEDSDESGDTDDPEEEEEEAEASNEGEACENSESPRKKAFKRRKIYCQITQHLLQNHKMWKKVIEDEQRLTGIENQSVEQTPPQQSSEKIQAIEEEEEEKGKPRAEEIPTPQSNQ
The experiment in a line: Obstructive action against cyclic AMP phosphodiesterase. In kind it is biochemical. Conditions: rabbit platelet enzyme, 30° C., 20 minutes. As for the experimental part:
That is, for determining the obstructive activity against cyclic AMP phosphodiesterase, 10 ml of a solution obtained by adding 1 mmol of MgCl2 into 50 mmol of tris-hydrochloric acid buffer with pH 7.4 was added to the platelets obtained by further centrifuging the above-said rabbit PRP at 3,000 r.p.m. for 10 minutes, and the suspended platelets were ground by a Teflon potter type homogenizer. This was followed by two times of freezing and thawing treatment and 300-second fracturing with 200 watt supersonic waves. After additional 60-minute centrifugation with 100,000 G, the supernatant was collected to use it as a crude enzyme solution.
10 Milliliters of this crude buffer solution was added to a 1.5×20 cm DEAE-cellulose column which has previously been buffered with 50 mM of tris-acetate buffer (pH 6.0), followed by washing and elution with 30 ml of 50 mM tris-acetate buffer, and this buffer solution was subjected to linear gradient elution with 0 to 0.5 moles of sodium acetate-tris-acetatebuffer (total amount of elute was 300 ml.). The flow rate was 0.5 ml/min, and 5 ml of each fraction was batched out. […] This fraction was used as cyclic AMP phosphodiesterase.
0.1 Milliliter of an aqueous solution of each test compound of a specified concentration was mixed with 40 mmol of tris-hydrochloric acid buffer (pH 8.0, containing 50 μg of cow serum albumin and 4 mmol of MgCl2) containing predetermined 1.0 μmol of cyclic AMP (tritium cyclic AMP), and 0.2 ml of this mixed solution was used as substrate solution.
0.2 Milliliter of the above-prepared cyclic AMP phosphodiesterase of a predetermined concentration was added to said substrate solution and the mixture was reacted at 30° C. for 20 minutes, producing tritium 5'-AMP from the tritium cyclic AMP.
The reaction system was then immersed in boiling water for 2 minutes to stop the reaction, and then this reaction solution was cooled in ice water and, for converting the produced tritium 5'-AMP into tritium adenosine, the solution was added with 0.05 ml (1 mg/ml) of snake poison as 5'-nucleotidase and reacted at 30° C. for 10 minutes. The whole amount of this reaction solution was then added to a cation exchange resin (AG 500 W×4, 200-400 meshes, manufactured by Bio-Rad Co., column size: 0.5×1.5 cm), and the produced tritium anodesine alone was allowed to combine, washed with 6 ml of distilled water and eluted with 1.5 ml of 3 N-ammonia water. The whole quantity of the elutant was added with 10 ml of a triton-toluene type scintillator and the produced tritium adenosine was measured by a liquid scintillation counter to determine the phosphodiesterase activity.
In this way, the phosphodiesterase activation value (Vs) of the test compounds of the respective concentrations was determined, and the phosphodiesterase obstruction rate (%) was determined from said activation value (Vs) and control value (Vc) (obtained from water not containing any test compound) from the following formula: [formula] Known 1-methyl-3-isobutylxanthine was used as control.

The values that follow come from patent publication US4435404A, “Carbostyril derivatives” (priority 1980, dated 1984).

In the data set “Acute Toxicity Test”, `O=C(CCCOc1ccc2[nH]c(=O)ccc2c1)N(CCO)C1CCCCC1` [No. 1, 6-{3-[N-(2-hydroxyethyl)-N-cyclohexylaminocarbonyl]propoxy}carbostyril] yielded an LD50 of over 1000 mg/kg. Moreover, the “Increasing effect of cerebral blood flow” value in the data set on bastard dog worked out at 89.8%. The compound further yielded an IC50 in data set [1] of 0.15 µM.

Usually LD50 stands for the dose at which mortality reaches 50%. Usually IC50 stands for the midpoint of a concentration-inhibition curve. A lower IC50 goes with inhibition by little substance.
